From patent publication US7534871B2, “Preparation and use of carbohydrate-based bicyclic ring structures with antimicrobial and cytostatic activity” (Kemin Pharma B.V.B.A., priority 2004, dated 2009) come the findings set out here.

Molecules are shown by their SMILES. Converted amounts (≈) assume the structure as drawn.

One data set concerns HSV-2 (G). The data set is described as follows: Anti-viral activity: HSV-2-induced cytopathicity in human embryo fibroblast E6SM cell cultures. Type of data set: cell-based, herpes simplex virus (HSV). The settings on record: Human alphaherpesvirus 2, 50%.
Take `CO[C@@H]1[C@@H](OC)[C@H](c2ccccc2)O[C@@H]2CO[C@@H](c3ccccc3)O[C@@H]12` [KPE00001015]: the EC50 (usually the concentration needed to bring the measured effect to its halfway point) is over 80 µg/mL.

In turn, `CO[C@@H]1[C@@H](OC)[C@H](Sc2ccccc2)O[C@@H]2COC(=O)CCCC/C=C/CCCCC(=O)O[C@@H]12` [KPE00001016.1] had an EC50 of over 3.2 µg/mL.

`CO[C@@H]1[C@@H](OC)[C@H](Sc2ccccc2)O[C@@H]2COC(=O)CCCC/C=C\CCCCC(=O)O[C@@H]12` [KPE00001016.2] came in with an EC50 of over 3.2 µg/mL.

The subject of a further data set is CMV AD-169 strain. The data set is described as follows: Anti-CMV activity: plaque reduction in HEL cells, AD-169 strain. Type of data set: cell-based, human cytomegalovirus (CMV). The settings on record: Human betaherpesvirus 5, AD169, HEL; Table 2; reduce virus plaque formation by 50%; virus input 100 PFU; read-out: IC50 CMV AD-169 Strain.
With `CO[C@@H]1[C@@H](OC)[C@H](Sc2ccccc2)O[C@@H]2COC(=O)CCCC/C=C/CCCCC(=O)O[C@@H]12` [KPE00001016.1], the IC50 came out at 10 µg/mL (≈ 20.3 µM).

Turning to `CO[C@@H]1[C@@H](OC)[C@H](Sc2ccccc2)O[C@@H]2COC(=O)CCCC/C=C\CCCCC(=O)O[C@@H]12` [KPE00001016.2], the IC50 is over 20 µg/mL.

Staying with this data set, now noted: strain not named.
As to `CO[C@@H]1[C@@H](OC)[C@H](Sc2ccccc2)O[C@@H]2COC(=O)CCCC/C=C/CCCCC(=O)O[C@@H]12` [KPE00001016.1], the “anti-viral activity against CMV, in words” value was “especially active”.

The subject of a further data set is CMV Davis strain. The data set is described as follows: Anti-CMV activity: plaque reduction in HEL cells, Davis strain. It counts as cell-based, human cytomegalovirus (CMV). Particulars: Human betaherpesvirus 5, HEL; Table 2; reduce virus plaque formation by 50%; virus input 100 PFU; read-out: IC50 CMV David strain.
Turning to `CO[C@@H]1[C@@H](OC)[C@H](Sc2ccccc2)O[C@@H]2COC(=O)CCCC/C=C/CCCCC(=O)O[C@@H]12` [KPE00001016.1], the IC50 was 10 µg/mL (≈ 20.3 µM).

Consider `CO[C@@H]1[C@@H](OC)[C@H](Sc2ccccc2)O[C@@H]2COC(=O)CCCC/C=C\CCCCC(=O)O[C@@H]12` [KPE00001016.2], for which the IC50 was over 20 µg/mL.

The subject of the next data set is murine leukemia cells (L1210/0). The data set is described as follows: Cytostatic activity: inhibition of proliferation of L1210/0 cells. Type of data set: cell-based. Particulars: Mus musculus, L1210/0; 50% inhibitory concentration, cell proliferation; read-out: IC50 L1210/0. As for the experimental part:
(§1) The compounds were tested for anti-tumor activity via the inhibitory effects on the proliferation of murine leukemia cells (L1210/0), murine mammary carcinoma cells (FM3A), human T-lymphocyte cells (Molt4/C8, CEM/0) and human cervix carcinoma cells (HeLa).
For the compound `CO[C@@H]1[C@@H](OC)[C@H](c2ccccc2)O[C@@H]2CO[C@@H](c3ccccc3)O[C@@H]12` [KPE00001015], the IC50 is at least 200 µg/mL.

Turning to `CO[C@@H]1[C@@H](OC)[C@H](Sc2ccccc2)O[C@@H]2COC(=O)CCCC/C=C/CCCCC(=O)O[C@@H]12` [KPE00001016.1], the IC50 is 20 ± 7 µg/mL (≈ 40.6 µM).

Regarding `CO[C@@H]1[C@@H](OC)[C@H](Sc2ccccc2)O[C@@H]2COC(=O)CCCC/C=C\CCCCC(=O)O[C@@H]12` [KPE00001016.2], the IC50 is 158 ± 10 µg/mL (≈ 321 µM).

A further data set concerns human T-lymphocyte cells (CEM/0). Kind of data set: Cytostatic activity: inhibition of proliferation of CEM/0 cells. It counts as cell-based. Particulars: CCRF-CEM, 50% inhibitory concentration, cell proliferation, read-out: IC50 CEM/0. How it is done: as §1
Regarding `CO[C@@H]1[C@@H](OC)[C@H](c2ccccc2)O[C@@H]2CO[C@@H](c3ccccc3)O[C@@H]12` [KPE00001015], the IC50 amounted to 81 ± 10 µg/mL (≈ 227 µM).

As for `CO[C@@H]1[C@@H](OC)[C@H](Sc2ccccc2)O[C@@H]2COC(=O)CCCC/C=C/CCCCC(=O)O[C@@H]12` [KPE00001016.1], the IC50 came out at 23 ± 0.5 µg/mL (≈ 46.7 µM).

With `CO[C@@H]1[C@@H](OC)[C@H](Sc2ccccc2)O[C@@H]2COC(=O)CCCC/C=C\CCCCC(=O)O[C@@H]12` [KPE00001016.2], the IC50 amounted to 36 ± 16 µg/mL (≈ 73.1 µM).

For another data set, the system named is Candida albicans IHEM 10284 - ATCC 24433. Kind of data set: Anti-fungal activity, Bioscreen C growth curve: Candida albicans (yeast). Particulars: Candida albicans, ATCC24433; 25 PPM; 35° C., 24 hours; negative control = 100; read-out: % of growth at a dose of 25 PPM compared to the negative control, Candida albicans IHEM 10284 - ATCC 24433. Type of data set: cell-based. As for the experimental part: (§2) For the determination of the anti-bacterial and anti-fungal activity the Bioscreen C Analyser Labsystems, Finland, was used. This is an automated reader-incubator. It measures growth continuously by vertical photometry (optical density), processes the data and provides a print out of the results. The area under the growth curve is automatically determined via the Biolink software.
The inoculum size of the yeast is standardized to 0.5-2.5×10^3 CFU/ml.
(§3) For bacteria, the 100-honey-well plates containing test chemical, Mueller-Hinton broth and inoculum (=sample) are incubated at 35° C. for 16 hours. Also wells without inoculum are incubated (=blanco). Yeasts are incubated 35° C. for 24 hours in RPMI 1640+MOPS buffer at 165 mM. Moulds also in RPMI 1640+MOPS buffer at 165 mM are incubated 25° C. for 5 days. All micro-organisms are screened against a known concentration of the reference antibiotics or antimycotics such as vancomycin, penicillin G, gentamicin or amphotericin B. The growth curve and the area under the growth curve can be determined using the Biolink software; this is illustrated in FIG. 1.
(§4) The area of the blanco is subtracted from the area of the sample, this number (delta) gives us an indication of the biological activity of the molecules tested and can be expressed as a % of growth at a specific dose compared to a negative control that has a value of 100, illustrated in FIG. 2. Screening of each dose of a specific compound is repeated 5 times. The dose used for all new molecules in all tests is 25 PPM or 25 μg/ml.
(§5) In Table 5 the anti-fungal activity is given for the new molecules. The micro-organisms used were Candida albicans (a typical yeast) and Microsporum gypseum (a typical mold).
(§6) Also for the determination of the anti-fungal activity the Bioscreen C Analyser Labsystems Oy, Finland was used. It measures growth continuously by vertical photometry (optical density), processes the data and provides a print out of the results. The area under the growth curve is automatically determined via the Biolink software.
(§7) The inoculum size of the yeast is standardized to 0.5-2.5×10^3 CFU/ml. The inoculum size of the mould is standardized to 0.4-5.0×10^4 CFU/ml. Yeasts are incubated 35° C. for 24 hours in RPMI 1640+MOPS buffer at 165 mM. Moulds also in RPMI 1640+MOPS buffer at 165 mM are incubated 25° C. for 5 days.
(§8) As a control, all micro-organisms are screened against some reference antibiotics with known MIC. Screening of each dose of a specific compound is repeated 5 times.
For the compound `CO[C@@H]1[C@@H](OC)[C@H](c2ccccc2)O[C@@H]2CO[C@@H](c3ccccc3)O[C@@H]12` [KPE00001015], the activity at 25 ppm was 66.6%.

With `CO[C@@H]1[C@@H](OC)[C@H](Sc2ccccc2)O[C@@H]2COC(=O)CCCC/C=C/CCCCC(=O)O[C@@H]12` [KPE00001016.1], the activity at 25 ppm worked out at 98.4%.

`CO[C@@H]1[C@@H](OC)[C@H](Sc2ccccc2)O[C@@H]2COC(=O)CCCC/C=C\CCCCC(=O)O[C@@H]12` [KPE00001016.2]: the activity at 25 ppm amounted to 85%.

The same data set, now with this note: conclusion in text on Table 5.
In the case of `CO[C@@H]1[C@@H](OC)[C@H](c2ccccc2)O[C@@H]2CO[C@@H](c3ccccc3)O[C@@H]12` [KPE00001015], the “activity against a yeast, in words” value was “best activity”.

In a further data set the test system is Microsporum gypseum IHEM 3999 - ATCC 14683. Kind of data set: Anti-fungal activity, Bioscreen C growth curve: Microsporum gypseum (mold). Type of data set: cell-based. The settings on record: Nannizzia gypsea, ATCC14683, 120 h; 25 PPM; 25° C., 5 days; negative control = 100; read-out: % of growth at a dose of 25 PPM compared to the negative control, Microsporum gypseum IHEM 3999 - ATCC 14683. How it is done: as §2
The inoculum size of the mould is standardized to 0.4-5.0×10^4 CFU/ml.
as §3, §4, §5, §6, §7, §8
On to `CO[C@@H]1[C@@H](OC)[C@H](c2ccccc2)O[C@@H]2CO[C@@H](c3ccccc3)O[C@@H]12` [KPE00001015], for which the activity at 25 ppm was 66%.

In the case of `CO[C@@H]1[C@@H](OC)[C@H](Sc2ccccc2)O[C@@H]2COC(=O)CCCC/C=C/CCCCC(=O)O[C@@H]12` [KPE00001016.1], the activity at 25 ppm was determined as 74%.

As for `CO[C@@H]1[C@@H](OC)[C@H](Sc2ccccc2)O[C@@H]2COC(=O)CCCC/C=C\CCCCC(=O)O[C@@H]12` [KPE00001016.2], the activity at 25 ppm was 58%.

The next data set relates to HEL cells. Kind of data set: Cytotoxicity: alteration of cell morphology (MCC). Type of data set: cell-based, human. Particulars: minimum cytotoxic concentration that causes a microscopically detectable alteration of cell morphology.
In the case of `CO[C@@H]1[C@@H](OC)[C@H](c2ccccc2)O[C@@H]2CO[C@@H](c3ccccc3)O[C@@H]12` [KPE00001015], the “Cytotoxicity Cell morphology (MCC)” value turned out to be 50 μg/ml.

Tested on in a further data set: not listed separately
The data set is described as follows: Cytotoxicity: inhibition of HEL cell growth (CC50). It counts as cell-based. The settings on record: human; concentration required to reduce cell growth by 50%; HEL cells, three days. As for the experimental part: The medium was then replaced by MEM containing various concentrations of the test compound. After three days incubation at 37° C., when the cell monolayer was 70% confluent, the cell number was determined with the Coulter counter. The minimum cytotoxic concentration was defined as the concentration required to reduce cell growth by 50%.
Consider `CO[C@@H]1[C@@H](OC)[C@H](c2ccccc2)O[C@@H]2CO[C@@H](c3ccccc3)O[C@@H]12` [KPE00001015], for which the CC50 (in general, the concentration that lowers cell viability or growth by half) at 3 days is over 50 µg/mL.

The test system of the next data set is L1210/0, FM3A, Molt4/C8, CEM/0 and HeLa cells. Kind of data set: Cytostatic studies, conclusion over the panel of cell lines. Type of data set: cell-based, murine and human. Particulars: conclusion in text on Table 3. How it is done: as §1
Turning to `CO[C@@H]1[C@@H](OC)[C@H](Sc2ccccc2)O[C@@H]2COC(=O)CCCC/C=C/CCCCC(=O)O[C@@H]12` [KPE00001016.1], the “cytostatic activity, in words” value was “good cytostatic activity”.

Tested on in the next data set: not given
Assay: not given
Details: not given
Consider `CO[C@@H]1[C@@H](OC)[C@H](Sc2ccccc2)O[C@@H]2COC(=O)CCCC/C=C/CCCCC(=O)O[C@@H]12` [KPE00001016.1], for which the melting point (as a rule, the temperature, or range, at which the solid turns liquid) was 60 to 61 °C.

`CO[C@@H]1[C@@H](OC)[C@H](Sc2ccccc2)O[C@@H]2COC(=O)CCCC/C=C\CCCCC(=O)O[C@@H]12` [KPE00001016.2] returned a melting point of 87 to 88 °C.
